Assay results reported in ChEMBL document CHEMBL1149819, “Synthesis and in vivo anti-mutagenic activity of novel melatonin derivatives” (2008).

How the values were obtained:
Settings in all cases: route intragastric
Mus musculus [1] = experiment: Inhibition of cyclophosphamide-induced increase in micronuclei/polychromatic erythrocytes count in mouse at 18.38 mg/kg administered intragastrically for 1 week by micronuclei assay; format: functional; set-up: scale not given: the % may be the effect or the level left
Mus musculus [2] = experiment: Antimutagenic activity in Albino mouse brain assessed as DNA level per gram of tissue at 14.16 mg/kg administered intragastrically for 1 week; format: functional
Mus musculus [3] = experiment: Antimutagenic activity in Albino mouse kidney assessed as DNA level per gram of tissue at 14.16 mg/kg administered intragastrically for 1 week; format: functional
Mus musculus [4] = experiment: Antimutagenic activity in Albino mouse liver assessed as DNA level per gram of tissue at 14.16 mg/kg administered intragastrically for 1 week; format: functional
Mus musculus [5] = experiment: Antimutagenic activity in Albino mouse testes assessed as DNA level per gram of tissue at 14.16 mg/kg administered intragastrically for 1 week; format: functional, Testis
Mus musculus [6] = experiment: Antimutagenic activity in Albino mouse brain assessed as RNA level per gram of tissue at 14.16 mg/kg administered intragastrically for 1 week; format: functional
Mus musculus [7] = experiment: Antimutagenic activity in Albino mouse kidney assessed as RNA level per gram of tissue at 14.16 mg/kg administered intragastrically for 1 week; format: functional
Mus musculus [8] = experiment: Antimutagenic activity in Albino mouse liver assessed as RNA level per gram of tissue at 14.16 mg/kg administered intragastrically for 1 week; format: functional
Mus musculus [9] = experiment: Antimutagenic activity in Albino mouse testes assessed as RNA level per gram of tissue at 14.16 mg/kg administered intragastrically for 1 week; format: functional, Testis
Mus musculus [10] = experiment: Antimutagenic activity in mouse brain assessed as protein level per gram of tissue at 14.16 mg/kg administered intragastrically for 1 week; format: functional
Mus musculus [11] = experiment: Antimutagenic activity against cyclophosphamide-induced mutagenicity in mouse testes assessed as protein level per gram of tissue at 14.16 mg/kg administered intragastrically for 1 week; format: functional, Testis
Mus musculus [12] = experiment: Antimutagenic activity in mouse kidney assessed as protein level per gram of tissue at 14.16 mg/kg administered intragastrically for 1 week; format: functional
Mus musculus [13] = experiment: Antimutagenic activity in mouse liver assessed as protein level per gram of tissue at 14.16 mg/kg administered intragastrically for 1 week; format: functional
Mus musculus [14] = experiment: Antimutagenic activity in mouse brain assessed as peroxidase activity per microgram of tissue at 14.16 mg/kg administered intragastrically for 1 week; format: functional
Mus musculus [15] = experiment: Antimutagenic activity in mouse brain assessed as cholinesterase activity per microgram of tissue at 14.16 mg/kg administered intragastrically for 1 week; format: functional
Mus musculus [16] = experiment: Antimutagenic activity against cyclophosphamide-induced mutagenicity in Albino mouse kidney assessed as DNA level per gram of tissue at 14.16 mg/kg administered intragastrically for 1 week; format: functional
Mus musculus [17] = experiment: Antimutagenic activity against cyclophosphamide-induced mutagenicity in Albino mouse brain assessed as DNA level per gram of tissue at 14.16 mg/kg administered intragastrically for 1 week; format: functional
Mus musculus [18] = experiment: Antimutagenic activity against cyclophosphamide-induced mutagenicity in Albino mouse liver assessed as DNA level per gram of tissue at 14.16 mg/kg administered intragastrically for 1 week; format: functional
Mus musculus [19] = experiment: Antimutagenic activity against cyclophosphamide-induced mutagenicity in Albino mouse testes assessed as DNA level per gram of tissue at 14.16 mg/kg administered intragastrically for 1 week; format: functional, Testis
Mus musculus [20] = experiment: Antimutagenic activity against cyclophosphamide-induced mutagenicity in Albino mouse brain assessed as RNA level per gram of tissue at 14.16 mg/kg administered intragastrically for 1 week; format: functional
Mus musculus [21] = experiment: Antimutagenic activity against cyclophosphamide-induced mutagenicity in Albino mouse kidney assessed as RNA level per gram of tissue at 14.16 mg/kg administered intragastrically for 1 week; format: functional
Mus musculus [22] = experiment: Antimutagenic activity against cyclophosphamide-induced mutagenicity in Albino mouse liver assessed as RNA level per gram of tissue at 14.16 mg/kg administered intragastrically for 1 week; format: functional
Mus musculus [23] = experiment: Antimutagenic activity against cyclophosphamide-induced mutagenicity in mouse brain assessed as peroxidase activity per microgram of tissue at 14.16 mg/kg administered intragastrically for 1 week; format: functional
Mus musculus [24] = experiment: Antimutagenic activity against cyclophosphamide-induced mutagenicity in mouse brain assessed as cholinesterase activity per microgram of tissue at 14.16 mg/kg administered intragastrically for 1 week; format: functional
Mus musculus [25] = experiment: Antimutagenic activity against cyclophosphamide-induced mutagenicity in Albino mouse testes assessed as RNA level per gram of tissue at 14.16 mg/kg administered intragastrically for 1 week; format: functional, Testis
Mus musculus [26] = experiment: Antimutagenic activity against cyclophosphamide-induced mutagenicity in mouse brain assessed as protein level per gram of tissue at 14.16 mg/kg administered intragastrically for 1 week; format: functional
Mus musculus [27] = experiment: Antimutagenic activity against cyclophosphamide-induced mutagenicity in mouse kidney assessed as protein level per gram of tissue at 14.16 mg/kg administered intragastrically for 1 week; format: functional
Mus musculus [28] = experiment: Inhibition of cyclophosphamide-induced increase in micronuclei/polychromatic erythrocytes count in mouse at 10 mg/kg administered intragastrically for 1 week by micronuclei assay; format: functional; set-up: scale not given: the % may be the effect or the level left
Mus musculus [29] = experiment: Antimutagenic activity in Albino mouse brain assessed as DNA level per gram of tissue at 10 mg/kg administered intragastrically for 1 week; format: functional
Mus musculus [30] = experiment: Antimutagenic activity in Albino mouse kidney assessed as DNA level per gram of tissue at 10 mg/kg administered intragastrically for 1 week; format: functional
Mus musculus [31] = experiment: Antimutagenic activity in Albino mouse liver assessed as DNA level per gram of tissue at 10 mg/kg administered intragastrically for 1 week; format: functional
Mus musculus [32] = experiment: Antimutagenic activity in Albino mouse testes assessed as DNA level per gram of tissue at 10 mg/kg administered intragastrically for 1 week; format: functional, Testis
Mus musculus [33] = experiment: Antimutagenic activity in Albino mouse brain assessed as RNA level per gram of tissue at 10 mg/kg administered intragastrically for 1 week; format: functional
Mus musculus [34] = experiment: Antimutagenic activity in Albino mouse kidney assessed as RNA level per gram of tissue at 10 mg/kg administered intragastrically for 1 week; format: functional
Mus musculus [35] = experiment: Antimutagenic activity in Albino mouse liver assessed as RNA level per gram of tissue at 10 mg/kg administered intragastrically for 1 week; format: functional
Mus musculus [36] = experiment: Antimutagenic activity in Albino mouse testes assessed as RNA level per gram of tissue at 10 mg/kg administered intragastrically for 1 week; format: functional, Testis
Mus musculus [37] = experiment: Antimutagenic activity in mouse brain assessed as protein level per gram of tissue at 10 mg/kg administered intragastrically for 1 week; format: functional
Mus musculus [38] = experiment: Antimutagenic activity in mouse kidney assessed as protein level per gram of tissue at 10 mg/kg administered intragastrically for 1 week; format: functional
Mus musculus [39] = experiment: Antimutagenic activity against cyclophosphamide-induced mutagenicity in mouse liver assessed as protein level per gram of tissue at 10 mg/kg administered intragastrically for 1 week; format: functional
Mus musculus [40] = experiment: Antimutagenic activity against cyclophosphamide-induced mutagenicity in mouse testes assessed as protein level per gram of tissue at 10 mg/kg administered intragastrically for 1 week; format: functional, Testis
Mus musculus [41] = experiment: Antimutagenic activity against cyclophosphamide-induced mutagenicity in mouse brain assessed as peroxidase activity per microgram of tissue at 10 mg/kg administered intragastrically for 1 week; format: functional
Mus musculus [42] = experiment: Antimutagenic activity in mouse liver assessed as protein level per gram of tissue at 10 mg/kg administered intragastrically for 1 week; format: functional
Mus musculus [43] = experiment: Antimutagenic activity in mouse brain assessed as peroxidase activity per microgram of tissue at 10 mg/kg administered intragastrically for 1 week; format: functional
Mus musculus [44] = experiment: Antimutagenic activity in mouse brain assessed as cholinesterase activity per microgram of tissue at 10 mg/kg administered intragastrically for 1 week; format: functional
Mus musculus [45] = experiment: Antimutagenic activity against cyclophosphamide-induced mutagenicity in Albino mouse kidney assessed as DNA level per gram of tissue at 10 mg/kg administered intragastrically for 1 week; format: functional
Mus musculus [46] = experiment: Antimutagenic activity against cyclophosphamide-induced mutagenicity in Albino mouse brain assessed as DNA level per gram of tissue at 10 mg/kg administered intragastrically for 1 week; format: functional
Mus musculus [47] = experiment: Antimutagenic against cyclophosphamide-induced mutagenicity in Albino mouse liver assessed as DNA level per gram of tissue at 10 mg/kg administered intragastrically for 1 week; format: functional
Mus musculus [48] = experiment: Antimutagenic activity against cyclophosphamide-induced mutagenicity in Albino mouse testes assessed as DNA level per gram of tissue at 10 mg/kg administered intragastrically for 1 week; format: functional, Testis
Mus musculus [49] = experiment: Antimutagenic activity against cyclophosphamide-induced mutagenicity in Albino mouse brain assessed as RNA level per gram of tissue at 10 mg/kg administered intragastrically for 1 week; format: functional
Mus musculus [50] = experiment: Antimutagenic activity against cyclophosphamide-induced mutagenicity in Albino mouse kidney assessed as RNA level per gram of tissue at 10 mg/kg administered intragastrically for 1 week; format: functional
Mus musculus [51] = experiment: Antimutagenic activity against cyclophosphamide-induced mutagenicity in Albino mouse liver assessed as RNA level per gram of tissue at 10 mg/kg administered intragastrically for 1 week; format: functional
Mus musculus [52] = experiment: Antimutagenic activity against cyclophosphamide-induced mutagenicity in mouse brain assessed as cholinesterase activity per microgram of tissue at 10 mg/kg administered intragastrically for 1 week; format: functional
Mus musculus [53] = experiment: Antimutagenic activity against cyclophosphamide-induced mutagenicity in Albino mouse testes assessed as RNA level per gram of tissue at 10 mg/kg administered intragastrically for 1 week; format: functional, Testis
Mus musculus [54] = experiment: Antimutagenic activity against cyclophosphamide-induced mutagenicity in mouse brain assessed as protein level per gram of tissue at 10 mg/kg administered intragastrically for 1 week; format: functional
Mus musculus [55] = experiment: Antimutagenic activity against cyclophosphamide-induced mutagenicity in mouse kidney assessed as protein level per gram of tissue at 10 mg/kg administered intragastrically for 1 week; format: functional

`COc1ccc2c(c1)c(CCNC(C)=O)c1sc(CC#N)nn12` was tested, and the Activity (Mus musculus [1]) was 28%, the Activity (Mus musculus [2]) was 0.33 mg and the Activity (Mus musculus [3]) was 0.28 mg. The Activity (Mus musculus [4]) was 0.27 mg, the Activity (Mus musculus [5]) was 0.32 mg and the Activity (Mus musculus [6]) was 0.19 mg. For the same molecule, the Activity (Mus musculus [7]) was 0.23 mg, the Activity (Mus musculus [8]) was 0.3 mg and the Activity (Mus musculus [9]) was 0.21 mg. The Activity (Mus musculus [10]) was 2.98 g, the Activity (Mus musculus [11]) was 3.49 g and the Activity (Mus musculus [12]) was 7.87 g. For the same molecule, the Activity (Mus musculus [13]) was 9.95 g, the Activity (Mus musculus [14]) was 1.06 U/min and the Activity (Mus musculus [15]) was 3.3 U. It also gave an Activity (Mus musculus [16]) of 0.35 mg, an Activity (Mus musculus [17]) of 0.21 mg and an Activity (Mus musculus [18]) of 0.25 mg. It also gave an Activity (Mus musculus [19]) of 0.28 mg, an Activity (Mus musculus [20]) of 0.16 mg and an Activity (Mus musculus [21]) of 0.22 mg. It also gave an Activity (Mus musculus [22]) of 0.34 mg, an Activity (Mus musculus [23]) of 1.24 U/min and an Activity (Mus musculus [24]) of 2.73 U. It also gave an Activity (Mus musculus [25]) of 0.19 mg, an Activity (Mus musculus [26]) of 2.71 g and an Activity (Mus musculus [27]) of 4.94 g.
In the case of `COc1ccc2[nH]cc(CCNC(C)=O)c2c1` [MELATONIN], the Activity (Mus musculus [28]) is reported as 41%, the Activity (Mus musculus [29]) is reported as 0.32 mg and the Activity (Mus musculus [30]) is reported as 0.25 mg. It also gave an Activity (Mus musculus [31]) of 0.26 mg, an Activity (Mus musculus [32]) of 0.26 mg and an Activity (Mus musculus [33]) of 0.18 mg. For the same molecule, the Activity (Mus musculus [34]) was 0.38 mg, the Activity (Mus musculus [35]) was 0.44 mg and the Activity (Mus musculus [36]) was 0.34 mg. For the same molecule, the Activity (Mus musculus [37]) was 2.48 g, the Activity (Mus musculus [38]) was 6.39 g and the Activity (Mus musculus [39]) was 8.42 g. For the same molecule, the Activity (Mus musculus [40]) was 2.96 g, the Activity (Mus musculus [41]) was 2.54 U/min and the Activity (Mus musculus [42]) was 8.42 g. The Activity (Mus musculus [43]) was 3.38 U/min, the Activity (Mus musculus [44]) was 3.13 U and the Activity (Mus musculus [45]) was 0.24 mg. It also gave an Activity (Mus musculus [46]) of 0.21 mg, an Activity (Mus musculus [47]) of 0.23 mg and an Activity (Mus musculus [48]) of 0.23 mg. It also gave an Activity (Mus musculus [49]) of 0.15 mg, an Activity (Mus musculus [50]) of 0.19 mg and an Activity (Mus musculus [51]) of 0.28 mg. The Activity (Mus musculus [52]) was 2.63 U, the Activity (Mus musculus [53]) was 0.17 mg and the Activity (Mus musculus [54]) was 2.37 g. It also gave an Activity (Mus musculus [55]) of 4.42 g.
